Measured values taken from patent US8466259B2, “Adjuvants” (National Health Research Institutes, priority 2007, dated 2013).

Key:
rE7m = test: Anti-E7m IgG ELISA after immunization of mice with rE7m with or without lipo-Nter (Example 5); type: in vivo, mouse; conditions: subcutaneous, combined with 20 μg rE7m, two immunizations at two-week intervals
Method: Five mice (6-8 weeks old) were immunized subcutaneously with 20 μg of rE7m with or without lipo-Nter. The mice were given two immunizations at two-week intervals. Blood was collected from each mouse at different time points as indicated. Sera were prepared and stored at −80° C. until use. The level of anti-E7m IgG in the serum samples was determined by titrating the samples in 96-well plates coated with purified rE7m. Bound IgG was detected with horseradish peroxidase-conjugated goat anti-mouse IgG Fc. After the addition of TMB, the absorbance was measured with an ELISA reader at 450 nm.

TLR2 = molecular target: T1, TLR2 (Homo sapiens, UniProt O60603); test: NF-kB luciferase reporter assay in TLR2-transfected HEK293 cells; type: cell-based
T1 construct: FLAG; host or cells: HEK293
T1 sequence (O60603 21-784): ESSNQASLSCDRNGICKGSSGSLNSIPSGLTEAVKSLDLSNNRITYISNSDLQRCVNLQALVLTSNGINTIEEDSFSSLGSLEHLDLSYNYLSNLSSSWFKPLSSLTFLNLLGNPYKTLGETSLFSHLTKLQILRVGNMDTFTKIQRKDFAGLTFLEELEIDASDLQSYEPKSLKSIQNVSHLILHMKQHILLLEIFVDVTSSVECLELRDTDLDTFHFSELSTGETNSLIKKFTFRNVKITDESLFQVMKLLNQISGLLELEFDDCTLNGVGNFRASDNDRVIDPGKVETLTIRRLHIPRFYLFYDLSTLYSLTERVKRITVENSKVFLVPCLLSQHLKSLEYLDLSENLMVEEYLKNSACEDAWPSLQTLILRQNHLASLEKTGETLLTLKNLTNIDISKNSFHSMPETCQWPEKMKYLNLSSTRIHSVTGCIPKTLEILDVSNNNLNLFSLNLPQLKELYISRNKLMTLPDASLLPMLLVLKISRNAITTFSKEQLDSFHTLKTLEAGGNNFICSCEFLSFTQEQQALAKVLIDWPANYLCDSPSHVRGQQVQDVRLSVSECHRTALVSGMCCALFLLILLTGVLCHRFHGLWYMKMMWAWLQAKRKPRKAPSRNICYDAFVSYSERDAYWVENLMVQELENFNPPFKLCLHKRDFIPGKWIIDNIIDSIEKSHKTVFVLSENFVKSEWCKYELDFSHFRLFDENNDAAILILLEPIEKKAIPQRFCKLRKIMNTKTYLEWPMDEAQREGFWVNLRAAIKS
Method: HEK293 cells were plated onto 24-well plates (2×10^5 cells/well) and cotransfected with 0.1 μg of pFLAG-TLR2, 0.01 μg of pNF-kB-luc, and 0.01 μg of the pRL-TK internal control plasmid (Promega, Madison, Wis.) using lipofectamine 2000 (Invitrogen, Carlsbad, Calif.). After 24 h, the transfected cells were stimulated with various synthetic lipopeptide or recombinant proteins for 24 h. The cells were lysed so that the luciferase activity could be measured using a dual-luciferase reporter assay system (Promega Co., Madison, Wis.). Firefly-luciferase activities were related to Renilla-luciferase activities for the purposes of normalization. Both firefly and Renilla luciferase activities were monitored using a Berthold Orion II luminometer (Pforzheim, Germany).

[1] = tested on: TC-1 cells (expressed HPVE7 cells); test: TC-1 tumor growth inhibition, E7-derived peptide RAH with Pam3 or lipo-Nter (Example 7); type: in vivo, mouse; conditions: mice with TC-1 tumors, immunized once subcutaneously at day 7, combined with 20 μg E7-derived peptide RAH
Method: Six mice (6-8 weeks old) were inoculated with 2×10^5 TC-1 cells (expressed HPVE7 cells) at day 0. After 7 days, mice were immunized once subcutaneously with 20 μg of E7-derived peptide in the presence of tripamitoylated peptide Pam3 or lipo-Nter. The tumor size was monitored every 2-3 days until tumor volumes higher than 3000 mm^3. The tumor volumes were calculated based on the formula length×width×width/2.

[2] = tested on: bone marrow-derived dendritic cells; test: lipo-Nter stimulation of BM-DCs, cytokine ELISA (Example 4); type: cell-based, mouse; conditions: lipo-Nter 100 nM
Method: BM-DCs were harvested as previously described (Lutz et al., 1999). Briefly, femurs and tibiae of 6-8 week old female mice were removed, and the bone marrow cells were dispersed by vigorous pipetting. After removing red blood cells with lysis buffer, the isolated bone marrow cells were resuspended to a density of 2−5×10^5/ml cells with RPMI-10: RPMI-1640 (GIBCO BRL, Grand Island, N.Y.) supplemented with 10% P/S, L-glutamine (2 mM, Sigma), 2-mercaptoethanol (50 μM, Sigma), and 10% heat-inactivated FBS. On days 0, 3, and 6, bone marrow cells were added to Petri dishes containing 200 U/mL (20 ng/ml) of recombinant mouse granulocyte macrophage colony stimulating factor (MoGM-CSF, Peprotech, Rocky Hill, N.J.) in RPMI-10. At day 6, either LPS (0.01 μg/ml), lipo-Nter (100 nM) was added. Generally, immature dendritic cells made up 70% of the total cell population. The production of cytokines by BM-DCs was determined using ELISA. Briefly, 100 μL of anti-cytokine (10 μg/ml of IL-12p40, TNF-α) antibodies (R&D system Inc. Minneapolis, Minn.) were coated onto 96-well microtiter plates with 0.1 M carbonate buffer, pH 9.6, following overnight incubation at 4° C. […] The plates were read at 450 nm using an ELISA plate reader (Molecular Devices, CA). The production levels of the cytokines were calculated by subtracting the values obtained for non-stimulated groups.

[3] = tested on: TC-1 cells (expressed HPVE7 cells); test: TC-1 tumor growth inhibition, rE7m with or without lipo-Nter (Example 6); type: in vivo, mouse; conditions: mice with TC-1 tumors, immunized once subcutaneously at day 7, combined with 20 μg rE7m
Method: In this example, assays were conducted to examiner whether the lipo-Nter combined with rE7m can increase the tumor growth inhibition ability. Six mice (6-8 weeks old) were inoculated with 2×10^5 TC-1 cells (expressed HPVE7 cells) at day 0. After 7 days, mice were immunized once subcutaneously with 20 μg of rE7m with or without lipo-Nter. The tumor size was monitored every 2-3 days until tumor volumes higher than 3000 mm^3. The tumor volumes were calculated based on the formula length×width×width/2.

BM-DCs = test: Real-time quantitative PCR of cytokine/chemokine gene expression in BM-DCs; type: cell-based, mouse; conditions: 100 nM, 2 or 4 hours
Method: The BM-DCs were purified using the Dynabeads® Mouse DC Enrichment Kit (Invitrogen Dynal AS, Oslo, Norway) according to the manufacturer's instructions to 60 90%. The purified BM-DCs were stimulated using medium alone, or with 100 nM of Pam3, BPPcysPEG or rlipo-D1E3, at 37° C. for 2 or 4 hours. Total RNA was extracted from the isolated cells using the RNeasy mini kit (Qiagen, Valencia, Calif.) following the manufacturer's instructions. RNA (0.5-1 μg) was reverse-transcribed to cDNA using an oligo-dT primer in a 20 μl volume and SuperScript III RT (Invitrogen, Carlsbad, Calif.). The mouse Universal Probe Library (UPL) set (Roche, Mannheim, Germany) was used to perform the real-time qPCR assay for gene expression in isolated cell populations (Liu et al. (2007) J Leukoc Biol 82, 354-360.).
The reaction mixture contained 5 ng cDNA, 0.2 μM primers, and LightCycler 480 Probe Master (Roche), and the reagents were reacted in a LightCycler 480 system (Roche). All qPCRs were carried out using an initial denaturation step at 95° C. for 10 min, followed by 45 cycles of 95° C. for 10 s, 60° C. for 20 s, and 72° C. for 2 s. Target gene expression was normalization to HPRT gene expression. The relative gene expression levels were calculated by comparing the expression levels after treatment with various stimulators to those obtained using medium alone. […]

[4] = tested on: p38, ERK1/2 and JNK1/2 in BM-DCs; test: Western blot analysis of p38, ERK1/2, JNK1/2 phosphorylation in BM-DCs; type: cell-based, mouse; conditions: 100 nM
Method: The BM-DCs were grown in DMEM or RPMI medium without FBS for 16-18 h and then stimulated with 100 nM of the indicated lipopeptides or lipoprotein for 10, 20, 40, 60, 90, or 120 minutes at 37° C. These treated BM-DCs were then lysed in 25 mM HEPES, 150 mM NaCl, 1 mM EDTA, 1 mM EGTA, 10% glycerol, 1% Triton X-100, 10 mM sodium pyrophosphate, 20 mM b-glycerophosphate, Na3VO4, 10 mM NaF, […], and 1 mM PMSF. The concentration of the protein lysates was determined using the BCA protein assay kit (Pierce, Rockford, Ill.). Fifty microgram of lysates were electrophoresed per lane of a 10% SDS-PAGE gel. After the resolved lysates in the gel were transferred to a PVDF membrane, the membranes were blocked with 5% milk and 0.05% Tween-20. The membranes were incubated with antibodies against p38, pp38, pERK1/2, or pJNK1/2 in 5% w/v BSA, 1×PBS and 0.1% Tween-20. Anti-p38 antibody was used as a control for the protein loading level in each lane. The membrane was developed using the LumiGLO® Chemiluminescent Substrate system (Millipore, Billerica, Mass.). The total p38 level was used for normalization, and the induction of pp38 was determined using image analysis software (Image J1.41, NIH, Bethesda, Md.). Relative phosphorylation was calculated as the (density of pp38/density of p38)×100.

| Substance | anti-E7 antibody (anti-E7m IgG in serum) (rE7m) | activation of NF-κB signaling through TLR2 (TLR2; purified lipo-Nter) | tumor growth inhibition (tumor volume) [1] | secretion of TNF-α and IL-12p40 [2] | anti-tumor activity (tumor volume) [3] | NF-κB signaling activities (TLR2; at 0.1 or 1 nM concentration, compared among Pam3, rlipo-D1E3 and BPPcysPEG) | dose response of TLR2-dependent NF-κB activation (TLR2; range from 1 μM to 100 nM) | IL-10, TGFβ and CXCL1 expression levels (BM-DCs; compared among Pam3, BPPcysPEG and rlipo-D1E3) | expression levels of IL-13 (BM-DCs; compared to Pam3) | time after which phosphorylation dropped down to basal levels [4] [min] | level of the phosphorylation of p38, ERK1/2, JNK1/2 ([4]; compared with Pam3 and rlipo-D1E3) | time of highest induced level of phosphorylation of p38, ERK1/2 and JNK1/2 ([4]; measured 0-120 min) [min] |
| --- | --- | --- | --- | --- | --- | --- | --- | --- | --- | --- | --- | --- |
| N-acyl-S-diacylglyceryl-CSQEAK [lipo-Nter] | enhanced anti-E7 antibody | activate NF-κB signaling through TLR2 | could inhibit tumor growth | stimulated bone marrow-derived dendritic cells to secrete TNF-α and IL-12p40 | anti-tumor activity stronger than that of rE7m alone |  |  |  |  |  |  |  |
| S-[2,3-bispalmitoyloxy-[2R]-propyl-[R]-cysteinyl-amido polyethyleneglycol [BPPcysPEG] |  |  |  |  |  | highest NF-κB signaling activities | stronger activation of TLR2 | similar | higher expression levels | 60 | higher level | 10 |
